# According to patent publication US10485236B2, “Triazole derivatives, intermediates thereof and their use as fungicides” (Bayer CropScience Aktiengesellschaft, priority 2015, dated 2019):
# Marks after values point to notes of the source that are not given here.
# Assay: Measurement of LogP values by HPLC on reversed phase columns (EEC directive 79/831 Annex V.A8)
# Assay type: physicochemical
# Protocol: [table] If more than one Log P value is available within the same method, all the values are given and separated by “+”. Calibration was done with straight-chain alkan2-ones (with 3 to 16 carbon atoms) with known Log P values (measurement of Log P values using retention times with linear interpolation between successive alkanones). Lambda-max-values were determined using UV-spectra from 200 nm to 400 nm and the peak values of the chromatographic signals.
LogP,"chromatographic logP (reversed phase HPLC column, method [a]: LC-UV, acidic range, 0.1% formic acid in water and acetonitrile as eluent)",SMILES
3.04^[a],,O=C(Cn1cncn1)c1ccc(Oc2ccc(C(F)(F)F)cc2)nc1C(F)(F)F [VII.32]
2.45^[a],,O=C(Cn1cncn1)c1ncc(Oc2ccccc2)cc1Cl [VII.07]
4.19^[a],,O=C(CBr)c1ccc(Oc2ccc(Cl)cc2)nc1C(F)(F)F [VI.34]
3.69^[a],,O=C(CCl)c1ccc(Oc2ccc(Cl)cc2)nc1F [VI.20]
4.67^[a],,O=C(c1ccc(Oc2ccc(S(F)(F)(F)(F)F)cc2)nc1C(F)(F)F)C1CC1 [V.43]
2.39^[a],,O=C(Cn1cncn1)c1ccc(Oc2ccc(C(F)F)cc2)nc1Cl [VII.22]
4.29^[a],,O=C(CCl)c1ccc(Oc2ccc(S(F)(F)(F)(F)F)cc2)nc1C(F)(F)F [VI.29]
3.42^[a],,O=C(CCl)c1ccc(Oc2ccc(C(F)F)cc2)nc1Cl [VI.16]
2.74^[a],,O=C(Cn1cncn1)c1ccc(Oc2ccc(Cl)cc2F)nc1C(F)(F)F [VII.37]
3.87^[a],,CC(=O)c1ccc(Oc2ccc(Cl)cc2F)nc1C(F)(F)F [V.38]
3.23^[a],,O=C(Cn1cncn1)c1ccc(Oc2ccc(S(F)(F)(F)(F)F)cc2)nc1C(F)(F)F [VII.31]
3.99^[a],,CC(=O)c1cnc(Oc2ccc(Br)cc2)cc1C(F)(F)F [V.27]
5.03^[a],,CCCCC(=O)c1ccc(Oc2ccc(Cl)cc2)nc1C(F)(F)F [V.48]
3.89^[a],,CC(=O)c1ccc(Oc2ccc(OC(F)(F)F)cc2)nc1Cl [V.28]
2.68^[a],,O=C(Cn1cncn1)c1ccc(Oc2ccc(Br)cc2)nc1C(F)F [VII.35]
4.29^[a],,O=C(CBr)c1cnc(Oc2ccc(Cl)cc2)cc1C(F)(F)F [VI.14]
4.06^[a],,CC(=O)c1ccc(Oc2c(F)cc(Cl)cc2F)nc1C(F)(F)F [V.31]

LogP,"chromatographic logP (reversed phase HPLC column, method [a]: LC-UV, acidic range, 0.1% formic acid in water and acetonitrile as eluent)",SMILES
3.44^[a],,CC(C)c1ccc(Oc2ccc(C(=O)Cn3cncn3)c(C(F)(F)F)n2)cc1 [VII.34]
2.21^[a],,O=C(Cn1cncn1)c1ccc(Oc2ccccc2)nc1Cl [VII.06]
4.18^[a],,O=C(CBr)c1ccc(Oc2c(F)cc(Cl)cc2F)nc1C(F)(F)F [VI.32]
4.21^[a],,O=C(CCl)c1cnc(Oc2ccc(C(F)(F)F)cc2)cc1C(F)(F)F [VI.22]
,4.17,"O=C(c1ccc(Oc2ccc(Cl)cc2)nc1C(F)(F)F)C1CC1 [V.41, [6-(4-chlorophenoxy)-2-(trifluoromethyl)-3-pyridyl]-cyclopropyl-methanone]"
4.04^[a],,CC(=O)c1ccc(Oc2ccc(OC(F)(F)F)cc2)nc1C(F)(F)F [V.35]
3.39^[a],,O=C(CCl)c1ccc(Oc2ccc(F)cc2)nc1Cl [VI.09]
3.23^[a],,O=C(CCl)c1ccc(Oc2ccccc2)nc1Cl [VI.03]
3.21^[a],,O=Cc1ccc(Oc2ccc(C(=O)C3CC3)c(C(F)(F)F)n2)cc1 [V.42]
3.78^[a],,O=C(CCl)c1ncc(Oc2ccc(Cl)cc2)nc1Cl [VI.10]
2.30^[a],,O=C(Cn1cncn1)c1ccc(Oc2ccc(F)cc2)nc1Cl [VII.12]
3.28^[a],,O=C(CCl)c1cnc(Oc2ccccc2)cc1Cl [VI.05]
2.51^[a],,O=C(Cn1cncn1)c1cnc(Oc2ccc(Cl)cc2)cc1C(F)F [VII.36]
3.11^[a],,O=C(Cn1cncn1)c1ccc(Oc2ccc(S(F)(F)(F)(F)F)cc2)nc1Cl [VII.20]
4.51^[a],,O=C(CCl)c1ccc(Oc2ccc(Cl)cc2)nc1OC(F)(F)F [VI.12]
4.21^[a],,O=C(CCl)c1ccc(Oc2ccc(S(F)(F)(F)(F)F)cc2)nc1Cl [VI.30]

# Further lines, the compound ahead of its results:
SMILES,LogP,"chromatographic logP (reversed phase HPLC column, method [a]: LC-UV, acidic range, 0.1% formic acid in water and acetonitrile as eluent)"
CC(O)(Cn1cncn1)c1ccc(Oc2ccc(Br)cc2)nc1C(F)(F)F (racemic) [I.59],2.94^[a],
CC(=O)c1cnc(Oc2ccc(C(F)(F)F)cc2)cc1Cl [V.18],3.87^[a],
CC(=O)c1ccc(Oc2ccc(Cl)cc2)nc1C(F)F [V.05],3.35^[a],
CC(O)(Cn1cncn1)c1cnc(Oc2ccc(OC(F)(F)F)cc2)cc1C(F)(F)F (stereo not shown) [I.44],3.23^[a],
COc1ccc(Oc2ccc(C(O)Cn3cncn3)c(Cl)n2)c(Cl)c1 (racemic) [I.30],2.32^[a],
OC(Cn1cncn1)(c1ccc(Oc2ccc(Br)cc2)nc1C(F)(F)F)C(F)(F)F (stereo not shown) [I.85],3.48^[a],
CC(=O)c1ncc(Oc2ccc(Cl)cc2)nc1Cl [V.23],3.51^[a],
OC(Cn1cncn1)(c1ccc(Oc2ccc(S(F)(F)(F)(F)F)cc2)nc1C(F)(F)F)C1CC1 (stereo not shown) [I.97],3.80^[a],
"OC(Cn1cncn1)c1cnc(Oc2ccc(C(F)(F)F)cc2)cc1C(F)(F)F (single isomer, unassigned) [I.92]",2.86^[a],
CC(=O)c1ccc(Oc2ccc(Cl)c(Cl)c2)nc1Cl [V.11],4.10^[a],
OC(Cn1cncn1)c1ccc(Oc2ccc(S(F)(F)(F)(F)F)cc2)nc1Cl (racemic) [I.34],2.90^[a],
OC(Cn1cncn1)c1cnc(Oc2ccc(Br)cc2)cc1C(F)F (stereo not shown) [I.63],2.59^[a],
"CC(O)(Cn1cncn1)c1ccc(Oc2ccc(Cl)cc2)nc1Cl (single isomer, unassigned) [I.52]",2.62^[a],
CC(O)(Cn1cncn1)c1ccc(Oc2ccc(Cl)cc2F)nc1C(F)(F)F (stereo not shown) [I.66],2.80^[a],
CC(O)(Cn1cncn1)c1cnc(Oc2ccc(Cl)cc2F)cc1C(F)(F)F (stereo not shown) [I.58],3.02^[a],
CCC(O)(Cn1cncn1)c1cnc(Oc2ccc(C(F)(F)F)cc2)cc1C(F)(F)F (stereo not shown) [I.76],3.52^[a],
OC(Cn1cncn1)c1ccc(Oc2ccccc2)nc1Cl (racemic) [I.13],1.98^[a],
CC(=O)c1cnc(Oc2ccc(Cl)cc2F)cc1C(F)(F)F [V.07],4.09^[a],
OC(Cn1cncn1)c1cnc(Oc2ccc(Br)cc2)cc1C(F)(F)F (stereo not shown) [I.48],2.75^[a],
CC(=O)c1ccc(Oc2ccc(Cl)cc2)nc1OC(F)(F)F [V.06],4.37^[a],
CC(O)(Cn1cncn1)c1ccc(Oc2ccc(Cl)c(Cl)c2)nc1Cl (racemic) [I.32],3.09^[a],
OC(Cn1cncn1)(c1ccc(Oc2ccc(C(F)(F)F)cc2)nc1C(F)(F)F)C1CC1 (stereo not shown) [I.87],3.57^[a],
C=CC(O)(Cn1cncn1)c1cnc(Oc2ccc(C(F)(F)F)cc2)cc1C(F)(F)F (stereo not shown) [I.69],3.33^[a],
OC(Cn1cncn1)(c1ccc(Oc2ccc(C(F)F)cc2)nc1C(F)(F)F)C1CC1 (stereo not shown) [I.93],3.13^[a],
CC(O)(Cn1cncn1)c1ccc(Oc2ccc(F)cc2)nc1Oc1ccc(F)cc1 (stereo not shown) [I.77],3.13^[a],
OC(Cn1cncn1)c1ccc(Oc2ccc(Br)cc2)nc1C(F)F (stereo not shown) [I.73],2.50^[a],
CC(=O)c1ccc(Oc2ccc(Br)cc2)nc1C(F)(F)F [V.20],3.85^[a],
CC(O)(Cn1cncn1)c1ccc(Oc2ccc(C(F)(F)F)cc2)nc1C(F)(F)F (stereo not shown) [I.65],3.04^[a],

SMILES,LogP,"chromatographic logP (reversed phase HPLC column, method [a]: LC-UV, acidic range, 0.1% formic acid in water and acetonitrile as eluent)"
OC(Cn1cncn1)c1cnc(Oc2ccc(Cl)cc2F)cc1C(F)(F)F (stereo not shown) [I.57],2.86^[a],
"OC(Cn1cncn1)c1cnc(Oc2ccc(S(F)(F)(F)(F)F)cc2)cc1C(F)(F)F (single isomer, unassigned) [I.86]",3.11^[a],
OC(Cn1cncn1)c1ccc(Oc2ccc(F)cc2F)nc1Cl (racemic) [I.18],2.18^[a],
CC(=O)c1cnc(Oc2ccc(OC(F)(F)F)cc2)cc1C(F)(F)F [V.15],4.20^[a],
"CC(O)(Cn1cncn1)c1cnc(Oc2ccc(Cl)cc2)cc1Cl (single isomer, unassigned) [I.53]",2.53^[a],
OC(Cn1cncn1)c1ccc(Oc2ccc(Cl)cc2F)nc1C(F)(F)F (stereo not shown) [I.70],2.78^[a],
OC(Cn1cncn1)c1ccc(Oc2ccc(C(F)(F)F)cc2)nc1C(F)(F)F (stereo not shown) [I.61],2.84^[a],
"CC(O)(Cn1cncn1)c1cnc(Oc2ccc(Cl)cc2)cc1C(F)(F)F (single isomer, unassigned) [I.46]",2.93^[a],
CCCC(O)(Cn1cncn1)c1ccc(Oc2ccc(Cl)cc2)nc1C(F)(F)F (stereo not shown) [I.100],3.55^[a],
CC(=O)c1ccc(Oc2ccc(C(F)(F)F)cc2)nc1C(F)(F)F [V.17],3.96^[a],
CC(=O)c1ccc(Oc2ccc(Cl)cc2)nc1Cl [V.26],3.45^[a],
CC(O)(Cn1cncn1)c1cnc(Oc2ccc(Cl)cc2)cc1Cl (racemic) [I.08],2.50^[a],
OC(Cn1cncn1)c1ccc(Oc2ccc(Cl)c(Cl)c2)nc1Cl (racemic) [I.10],2.80^[a],
CC(O)(Cn1cncn1)c1ccc(Oc2ccc(OC(F)(F)F)cc2)nc1C(F)(F)F (stereo not shown) [I.95],2.98^[a],
CC(O)(Cn1cncn1)c1ccc(Oc2ccc(S(F)(F)(F)(F)F)cc2)nc1C(F)(F)F (stereo not shown) [I.62],3.25^[a],
OC(Cn1cncn1)c1ccc(Oc2ccc(OC(F)(F)F)c(Cl)c2)nc1Cl (racemic) [I.11],3.11^[a],
CC1(c2ccc(Oc3ccc(Cl)cc3)nc2C(F)(F)F)CO1 (stereo not shown) [IX.06],4.44^[a],
CC(C)c1ccc(Oc2ccc(C(C)(O)Cn3cncn3)c(C(F)(F)F)n2)cc1 (stereo not shown) [I.75],3.35^[a],
CC(O)(Cn1cncn1)c1ccc(Oc2ccc(F)cc2)nc1Cl (racemic) [I.27],2.28^[a],
"CC(O)(Cn1cncn1)c1ccc(Oc2ccc(Br)cc2)nc1C(F)(F)F (single isomer, unassigned) [I.102]",2.94^[a],
CC(O)c1ccc(Oc2ccc(C(O)Cn3cncn3)c(Cl)n2)cc1 (mixture of isomers) [I.24],1.48^[a],
CC(O)(Cn1cncn1)c1ccc(Oc2ccc(Cl)cc2)nc1C(F)(F)F (stereo not shown) [I.96],2.68^[a],
OC(Cn1cncn1)c1ccc(Oc2ccc(C(F)F)cc2)nc1C(F)(F)F (stereo not shown) [I.74],2.49^[a],
OC(Cn1cncn1)c1ccc(Oc2ccc(S(F)(F)(F)(F)F)cc2)nc1C(F)(F)F (stereo not shown) [I.60],3.08^[a],
CC(=O)c1cnc(Oc2ccc(Cl)cc2)cc1Cl [V.22],3.51^[a],
CC(O)(Cn1cncn1)c1cnc(Oc2ccc(C(F)(F)F)cc2)cc1Cl (stereo not shown) [I.78],2.88^[a],
CC(=O)c1ccc(Oc2ccc(C(F)F)cc2)nc1Cl [V.14],3.15^[a],
